Structures can show the parent of a compound that is named as a salt.
The compounds below were run against T1, full length Keap1 protein / full length NRF2 protein (Homo sapiens, UniProt Q14145) (assay: NRF2-Keap1 TR-FRET Low Protein Assay).
T1 construct: full length NRF2 protein and full length Keap1 protein (Keap1 exists a dimer) are used; His
Assay type: binding
Source text: In the NRF2-Keap1 TR-FRET (time-resolved fluorescence resonance energy transfer) low protein assay, full length NRF2 protein and full length Keap1 protein (Keap1 exists a dimer) are used. The assay detects a compound's ability to displace the binding of Keap1 FlagHis with biotinylated Avi-NRF2 protein. Biotin-NRF2 binds to streptavidin-europium (a component of the detection mix) and Keap1 FlagHis is recognized by anti-Flag APC (allophycocyanin) antibody (also a component of the detection mix). If binding occurs between the two proteins, there will be an energy transfer from the Eu+3 (donor) at 615 nm to the APC (acceptor) at 665 nm. A potential NRF2 inhibitor will cause a reduction in the TR-FRET signal by interfering with the binding of Keap1 to NRF2.
Ten nanoliters of 100× compound dose response curves (serial 3-fold dilutions) in DMSO were stamped using an Echo liquid handling system (Labcyte) into 384-well, low volume, black assay plates (Greiner, #784076), with DMSO in columns 6 and 18. An additional 90 nl DMSO was added to each well, to bring the total volume to 100 nl per well. The top concentration of compound was located in columns 1 and 13, with the serial dilutions going across the row. All reagents were diluted in assay buffer (50 mM Tris, pH 8.0, 5 mM MgCl2, 100 mM NaCl, 0.005% BSA, 1 mM DTT, and 2 mM CHAPS. The BSA, DTT, and CHAPS were added to the assay buffer on the day of assay. Using a Multidrop Combi (Thermo Electron Corporation) equipped with a metal tip dispenser, 5 ul of 1.25 nM Keap1 FlagHis protein was added to all wells of the compound plate, with the exception of the wells in column 18. Wells in column 18 received 5 ul of assay buffer instead. Plates were centrifuged at 500 rpm for 1 minute, covered with a plate lid, and incubated at 37° C. for 2.25 hours. Plates were then removed from the incubator and allowed to cool to RT for 15 minutes. Five microliters of 2.5 nM biotin-NRF2 protein was then added to all wells of the plates and the plates were spun at 500 rpm for 1 minute, followed by incubating at 4° C. for 1.25 hours. The plates were then allowed to warm to RT for 15 minutes, followed by the addition of 10 ul of detection mix (1 nM Streptavidin Eu+W1024 and 5 ug/ml mouse anti-DYKDDDDK IgG conjugated to SureLight APC antibody; both from Columbia Biosciences) to all wells. Plates were spun at 500 rpm for 1 minute, incubated for 1 hour at RT, and read on an Envision plate reader using a 320 nm excitation filter and 615 nm and 665 nm emission filters. Compound response (% inhibition) and potency (pIC50) were calculated based on the ratio of the two emissions (665 nm/615 nm) and then the transformed data was normalized against controls in the assay (control 1=1% DMSO in the presence of NRF2 and Keap1 protein and control 2=1% DMSO in the presence of only the NRF2 protein). Data analysis was handled using the software package Abase XE (Surrey, United Kingdom). The % inhibition values were calculated from the ratio (transformed) data by the equation:
100−(100*(compound response−average control 2)/(average control 1−average control2)).
For calculation of pIC50s, Abase XE used a four parameter equation.
IC50s<10 nM (+++++), IC50s 10-100 nM (++++), IC50s 100 nM-1 uM (+++), IC50s 1-10 uM (++). and IC50s 10 uM-100 uM (+), IC50s>100 uM (−), or were not determined (ND).

T1 sequence (Q14145 whole entry): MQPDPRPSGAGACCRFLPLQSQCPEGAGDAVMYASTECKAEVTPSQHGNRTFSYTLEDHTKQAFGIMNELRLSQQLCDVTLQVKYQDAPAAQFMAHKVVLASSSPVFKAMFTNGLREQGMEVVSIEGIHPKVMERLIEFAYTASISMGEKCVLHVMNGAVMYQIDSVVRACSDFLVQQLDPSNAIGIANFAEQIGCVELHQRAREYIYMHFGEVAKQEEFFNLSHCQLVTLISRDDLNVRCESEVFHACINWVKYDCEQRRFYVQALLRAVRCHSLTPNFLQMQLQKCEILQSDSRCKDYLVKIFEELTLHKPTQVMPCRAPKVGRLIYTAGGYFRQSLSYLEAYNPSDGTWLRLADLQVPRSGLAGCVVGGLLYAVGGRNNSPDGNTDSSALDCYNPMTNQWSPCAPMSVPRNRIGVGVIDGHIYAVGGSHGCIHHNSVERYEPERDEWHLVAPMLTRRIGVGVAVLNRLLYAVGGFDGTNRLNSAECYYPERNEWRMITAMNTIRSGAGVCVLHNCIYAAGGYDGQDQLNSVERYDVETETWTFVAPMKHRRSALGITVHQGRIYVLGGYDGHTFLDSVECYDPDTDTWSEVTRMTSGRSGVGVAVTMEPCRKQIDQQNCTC

SMILES | EC50
COc1ccc(Cl)cc1S(=O)(=O)N(C)Cc1cccc(-n2ncc(C(=O)O)c2[C@@H]2C[C@H]2c2cn(C)nn2)c1 (racemic) [Example 40, 1-(3-((5-chloro-2-methoxy-N-methylphenyl-sulfonamido)-methyl)phenyl)-5-((trans)-2-(1-methyl-1H-1,2,3-triazol-4-yl)cyclo-propyl)-1H-pyrazole-4-carboxylic acid] | 1 to 10 µM
CN(Cc1cccc(-n2ncc(C(=O)O)c2[C@@H]2C[C@H]2c2cn(C)nn2)c1)S(=O)(=O)c1c(Cl)cccc1C(F)(F)F (racemic) [Example 41, 1-(3-((2-chloro-N-methyl-6-(trifluoro-methyl)phenyl-sulfonamido)-methyl)phenyl)-5-((trans)-2-(1-methyl-1H-1,2,3-triazol-4-yl)cyclo-propyl)-1H-pyrazole-4-carboxylic acid] | 1 to 10 µM
COc1ccc(Br)cc1S(=O)(=O)N(C)Cc1cccc(-n2ncc(C(=O)O)c2[C@@H]2C[C@H]2c2cn(C)nn2)c1 (racemic) [Example 43, 1-(3-((5-bromo-2-methoxy-N-methylphenylsulfonamido)methyl)phenyl)-5-((trans)-2-(1-methyl-1H-1,2,3-triazol-4-yl)cyclopropyl)-1H-pyrazole-4-carboxylic acid] | 1 to 10 µM
COc1cc([N+](=O)[O-])ccc1S(=O)(=O)N(C)Cc1cccc(-n2ncc(C(=O)O)c2[C@@H]2C[C@H]2c2cn(C)nn2)c1 (racemic) [Example 44, 1-(3-((2-methoxy-N-methyl-4-nitrophenylsulfonamido)methyl)phenyl)-5-((trans)-2-(1-methyl-1H-1,2,3-triazol-4-yl)cyclopropyl)-1H-pyrazole-4-carboxylic acid] | 1 to 10 µM
CCCCCCN(Cc1cccc(-n2ncc(C(=O)O)c2[C@@H]2C[C@H]2c2cn(C)nn2)c1)S(=O)(=O)c1ccccc1Oc1ccccc1 (racemic) [Example 49, 1-(3-((N-hexyl-2-phenoxyphenylsulfonamido)methyl)phenyl)-5-((trans)-2-(1-methyl-1H-1,2,3-triazol-4-yl)cyclopropyl)-1H-pyrazole-4-carboxylic acid] | 1 to 10 µM
CN(Cc1cccc(-n2ncc(C(=O)O)c2[C@@H]2C[C@H]2c2cn(C)nn2)c1)S(=O)(=O)c1cccc2cccnc12 (racemic) [Example 51, 5-((trans)-2-(1-methyl-1H-1,2,3-triazol-4-yl)cyclopropyl)-1-(3-((N-methylquinoline-8-sulfonamido)methyl)phenyl)-1H-pyrazole-4-carboxylic acid] | 1 to 10 µM
COc1ccccc1S(=O)(=O)NCc1cccc(-n2ncc(C(=O)O)c2[C@@H]2C[C@H]2c2cn(C)nn2)c1 (racemic) [Example 52, 1-(3-((2-methoxyphenylsulfonamido)methyl)phenyl)-5-((trans)-2-(1-methyl-1H-1,2,3-triazol-4-yl)cyclopropyl)-1H-pyrazole-4-carboxylic acid] | 1 to 10 µM
COc1ccccc1S(=O)(=O)N(Cc1cccc(-n2ncc(C(=O)O)c2[C@@H]2C[C@H]2c2cn(C)nn2)c1)C1CC1 (racemic) [Example 53, 1-(3-((N-cyclopropyl-2-methoxyphenylsulfonamido)methyl)phenyl)-5-((trans)-2-(1-methyl-1H-1,2,3-triazol-4-yl)cyclopropyl)-1H-pyrazole-4-carboxylic acid] | 10 to 100 µM
CCOc1ccc(Br)cc1CN(C)Cc1cccc(-n2ncc(C(=O)O)c2[C@@H]2C[C@H]2c2cn(C)nn2)c1 (racemic) [Example 54, 1-(3-(((5-bromo-2-ethoxybenzyl)(methyl)amino)methyl)phenyl)-5-((trans)-2-(1-methyl-1H-1,2,3-triazol-4-yl)cyclopropyl)-1H-pyrazole-4-carboxylic acid trifluoroacetate] | 1 to 10 µM
Cc1cc([C@@H]2C[C@H]2c2c(C(=O)O)cnn2-c2cccc(CN3C[C@@H](C)Cc4cc(C(F)(F)F)ccc4S3(=O)=O)c2)on1 (racemic) [Example 57, 1-(3-(((S)-4-Methyl-1,1-dioxido-7-(trifluoromethyl)-4,5-dihydrobenzo[f][1,2]thiazepin-2(3H)-yl)methyl)phenyl)-5-(trans-2-(3-methylisoxazol-5-yl)cyclopropyl)-1H-pyrazole-4-carboxylic acid] | 1 to 10 µM
CCCCCCN(Cc1cccc(-n2ncc(C(=O)O)c2[C@@H]2C[C@H]2c2cn(C)nn2)c1)S(=O)(=O)c1ccc(Oc2ccccc2)cc1 (relative stereo) [Example 36, 1-(3-((N-hexyl-4-phenoxyphenylsulfonamido)methyl)phenyl)-5-((trans)-2-(1-methyl-1H-1,2,3-triazol-4-yl)-cyclopropyl)-1H-pyrazole-4-carboxylic acid] | 0.1 to 1 µM

Further lines, results first:

EC50 | SMILES
0.1 to 1 µM | CCCCCCN(Cc1cccc(-n2ncc(C(=O)O)c2[C@@H]2C[C@H]2c2cn(C)nn2)c1)S(=O)(=O)c1ccccc1C (racemic) [Example 37, 1-(3-((N-hexyl-2-methylphenylsulfonamido)methyl)phenyl)-5-((trans)-2-(1-methyl-1H-1,2,3-triazol-4-yl)cyclo-propyl)-1H-pyrazole-4-carboxylic acid]
1 to 10 µM | Cc1ccccc1S(=O)(=O)N(C)Cc1cccc(-n2ncc(C(=O)O)c2[C@@H]2C[C@H]2c2cn(C)nn2)c1 (racemic) [Example 42, 1-(3-((N,2-dimethylphenylsulfonamido)methyl)phenyl)-5-((trans)-2-(1-methyl-1H-1,2,3-triazol-4-yl)cyclopropyl)-1H-pyrazole-4-carboxylic acid]
1 to 10 µM | CCOc1ccccc1S(=O)(=O)N(C)Cc1cccc(-n2ncc(C(=O)O)c2[C@@H]2C[C@H]2c2cn(C)nn2)c1 (racemic) [Example 45, 1-(3-((2-ethoxy-N-methylphenylsulfonamido)methyl)phenyl)-5-((trans)-2-(1-methyl-1H-1,2,3-triazol-4-yl)cyclopropyl)-1H-pyrazole-4-carboxylic acid]
1 to 10 µM | CN(Cc1cccc(-n2ncc(C(=O)O)c2[C@@H]2C[C@H]2c2cn(C)nn2)c1)S(=O)(=O)c1ccccc1OC(F)(F)F (racemic) [Example 46, 5-((trans)-2-(1-methyl-1H-1,2,3-triazol-4-yl)cyclopropyl)-1-(3-((N-methyl-2-(trifluoromethoxy)phenylsulfonamido)methyl)phenyl)-1H-pyrazole-4-carboxylic acid]
1 to 10 µM | COc1ccccc1S(=O)(=O)N(C)Cc1cccc(-n2ncc(C(=O)O)c2[C@@H]2C[C@H]2c2cn(C)nn2)c1 (racemic) [Example 47, 1-(3-((2-methoxy-N-methylphenylsulfonamido)methyl)phenyl)-5-((trans)-2-(1-methyl-1H-1,2,3-triazol-4-yl)cyclopropyl)-1H-pyrazole-4-carboxylic acid]
1 to 10 µM | CN(Cc1cccc(-n2ncc(C(=O)O)c2[C@@H]2C[C@H]2c2cn(C)nn2)c1)S(=O)(=O)c1ccccc1 (racemic) [Example 48, 5-((trans)-2-(1-methyl-1H-1,2,3-triazol-4-yl)cyclopropyl)-1-(3-((N-methylphenylsulfonamido)methyl)phenyl)-1H-pyrazole-4-carboxylic acid]
1 to 10 µM | CCCN(Cc1cccc(-n2ncc(C(=O)O)c2[C@@H]2C[C@H]2c2cn(C)nn2)c1)S(=O)(=O)c1ccccc1C (racemic) [Example 50, 5-((trans)-2-(1-methyl-1H-1,2,3-triazol-4-yl)cyclopropyl)-1-(3-((2-methyl-N-propylphenylsulfonamido)methyl)phenyl)-1H-pyrazole-4-carboxylic acid]
10 to 100 µM | CCCCCCN(Cc1cccc(-n2ncc(C(=O)O)c2[C@@H]2C[C@H]2c2cnn(C)c2)c1)S(=O)(=O)c1ccccc1C (racemic) [Example 56]

Reference: patent US20200071310A1, “N-ARYL PYRAZOLES AS NRF2 REGULATORS” (GLAXOSMITHKLINE INTELLECTUAL PROPERTY DEVELOPMENT LIMITED, priority 2016, published 2020)
